What was measured:
[1] = target: T1, Catechol O-methyltransferase (Sus scrofa, UniProt Q99028); assay: In vitro inhibitory activity against Catechol-O-methyltransferase from porcine liver; Uncompetitive mode of inhibition
T1 sequence (Q99028 whole entry): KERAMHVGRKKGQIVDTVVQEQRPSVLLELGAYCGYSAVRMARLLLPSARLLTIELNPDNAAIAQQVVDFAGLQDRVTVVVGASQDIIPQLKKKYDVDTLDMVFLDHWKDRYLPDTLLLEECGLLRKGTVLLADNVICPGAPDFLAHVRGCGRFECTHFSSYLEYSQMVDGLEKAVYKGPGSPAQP

[2] = target: T1, Catechol O-methyltransferase; assay: In vitro inhibitory activity against Catechol-O-methyltransferase from porcine liver; Competitive mode of inhibition
[3] = compound: C[S+](CC[C@H](N)C(=O)[O-])C[C@H]1O[C@@H](n2cnc3c(N)ncnc32)[C@H](O)[C@@H]1O; assay: (§1) In vitro inhibitory activity against Catechol-O-methyltransferase from porcine liver; details: Sus scrofa
[4] = compound: COC(=O)c1cc(O)c(O)c(O)c1; assay: as §1; details: Sus scrofa
[5] = compound: O=C(NCCCCCNC(=O)c1ccc(O)c(O)c1)c1ccc(O)c(O)c1; assay: (§2) In vitro inhibitory activity against Catechol-O-methyltransferase from porcine liver; No inhibitory action; details: Sus scrofa
[6] = compound: CCCNC(=O)c1ccc(O)c(O)c1; assay: as §2; details: Sus scrofa
[7] = compound: O=C(NCCCCCCNC(=O)c1ccc(O)c(O)c1)c1ccc(O)c(O)c1; assay: as §2; details: Sus scrofa
[8] = compound: O=C(NCCNC(=O)c1ccc(O)c(O)c1)c1ccc(O)c(O)c1; assay: as §2; details: Sus scrofa

**Q.** For `O=C(NCCNC(=O)c1cc(O)c(O)c(O)c1)c1cc(O)c(O)c(O)c1`, which Ki [1] is on record?
**A.** The Ki was 136 µM.

**Q.** With `O=C(NCCCCCCNC(=O)c1cc(O)c(O)c(O)c1)c1cc(O)c(O)c(O)c1` as the molecule, how does the Ki [1] read?
**A.** The Ki was 35 µM.

**Q.** `O=C(NCCCNC(=O)c1cc(O)c(O)c(O)c1)c1cc(O)c(O)c(O)c1` was tested. Which Ki [1] did it give?
**A.** Its Ki is 6.6 µM.

**Q.** `O=C(NCCCNC(=O)c1ccc(O)c(O)c1)c1ccc(O)c(O)c1` was tested. Which Ki [2] did it give?
**A.** Its Ki is 0.3 µM.

**Q.** Which Ki [2] does the source give for `CCCNC(=O)c1cc(O)c(O)c(O)c1` here?
**A.** Its Ki is 0.5 µM.

**Q.** With `O=C(NCCCCCNC(=O)c1cc(O)c(O)c(O)c1)c1cc(O)c(O)c(O)c1` as the molecule, how does the Ki [1] read?
**A.** Its Ki is 26.7 µM.

B1: Catechol O-methyltransferase (Sus scrofa), Q99028 (protein)
chain: T1 sequence (Q99028 whole entry)
**Q.** Which Km [3] does the source give for B1 here?
**A.** Its Km is 44.6 µM.

**Q.** And the Km [4]?
**A.** Its Km is 25.5 µM.

**Q.** And the COMT inhibitory activity [5]?
**A.** The COMT inhibitory activity was “No inhibitory action”.

**Q.** What about the COMT inhibitory activity [6] of the same molecule?
**A.** The COMT inhibitory activity was “No inhibitory action”.

**Q.** And the COMT inhibitory activity [7]?
**A.** Its COMT inhibitory activity is “No inhibitory action”.

**Q.** What about the COMT inhibitory activity [8] of the same molecule?
**A.** The COMT inhibitory activity was “No inhibitory action”.

Source: ChEMBL document CHEMBL1130076, “Synthesis and in vitro evaluation of two progressive series of bifunctional polyhydroxybenzamide catechol-O-methyltransferase inhibitors” (J Med Chem, 1997)
